The record followed here is the supplement of paper PMC10307832.

Common to all, as to experiment: relative viability (nuclei count vs DMSO), 5 days (fraction); higher = more cells survive
Compound in experiment [1]: CC1=C(C(=NN1)C)CC2=C(C3=C(S2)N(C(=O)N(C3=O)C)CC(C)C)C(=O)N4C[C@@H](CO4)O + Nc1nc2[nH]cc(CCc3ccc(C(=O)N[C@@H](CCC(=O)O)C(=O)O)cc3)c2c(=O)[nH]1 [Pemetrexed] (partner 0.2 µM)
In short, it runs like this:
(§1)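 Lung cancer cell lines in 1536-well plates were dosed by pin tool the day after seeding, either with one drug alone or with a fixed anchor-drug dose plus five library-drug doses (not always all listed) in √10 steps. After 5 days, cells were fixed and their nuclei stained in one step (final 0.05% Triton X-100, 1% formaldehyde, 1 ug/ml Hoechst), then counted on 4× images. Relative viability is the nuclei count in treated wells divided by that in vehicle wells. Values are medians of duplicate plates.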

Compound in experiment [2]: CC1=C(C(=NN1)C)CC2=C(C3=C(S2)N(C(=O)N(C3=O)C)CC(C)C)C(=O)N4C[C@@H](CO4)O + C[C@@H](Oc1cc(-c2cnn(C3CCNCC3)c2)cnc1N)c1c(Cl)ccc(F)c1Cl [Crizotinib] (partner 1 µM)
An outline of the steps: as §1

Compound in experiment [3]: Cc1ccccc1C(C(=O)NC1CCCCC1)N(C(=O)Cn1ccnc1C)c1cccc(F)c1 [IDH-C35] + CCNC(=O)c1noc(-c2cc(C(C)C)c(O)cc2O)c1-c1ccc(CN2CCOCC2)cc1 [Luminespib] (partner 0.01 µM)
An outline of the steps: as §1

Compound in experiment [4]: CC1=C(C(=NN1)C)CC2=C(C3=C(S2)N(C(=O)N(C3=O)C)CC(C)C)C(=O)N4C[C@@H](CO4)O + Cc1nc(Nc2ncc(C(=O)Nc3c(C)cccc3Cl)s2)cc(N2CCN(CCO)CC2)n1 [Dasatinib] (partner 0.075 µM)
An outline of the steps:
as §1

In the case of UMC-11, the relative viability in experiment [1] (first compound 0.0025 µM) amounted to 0.791; in experiment [1] (first compound 0.007906 µM), 0.86; in experiment [1] (first compound 0.025 µM) it was 0.779; in experiment [1] (first compound 0.07906 µM), 0.761; in experiment [1] (first compound 0.25 µM) it was 0.789; in experiment [2] (first compound 0.0025 µM), 0.647. Besides, the relative viability stood at 0.346 in experiment [2] (first compound 0.007906 µM); 0.441 in experiment [2] (first compound 0.025 µM); 0.628 in experiment [2] (first compound 0.07906 µM); 0.657 in experiment [2] (first compound 0.25 µM); 1.01 in experiment [3] (first compound 0.08 µM); 1.03 in experiment [3] (first compound 0.253 µM). Also, the relative viability in experiment [3] (first compound 0.8 µM) was 1.02; in experiment [3] (first compound 2.53 µM), 1.08; in experiment [3] (first compound 8 µM), 1.01; in experiment [4] (first compound 0.0025 µM) it was 0.435; in experiment [4] (first compound 0.007906 µM) it was 0.468; in experiment [4] (first compound 0.025 µM), 0.451. Moreover, the values for the relative viability in experiment [4] (first compound 0.07906 µM) and in experiment [4] (first compound 0.25 µM) were 0.348 and 0.439, respectively.
